Key:
[1] = tested on: [3H]-D-Asp uptake in HCT116 and LoVo cells (parental and resistant); test: [3H]-D-Asp uptake assay, summary over cell lines; assay type: cell-based, human; conditions: all cell lines; read-out: IC50 values, inhibition of basal [3H]-D-Asp uptake
Protocol: (§1) We therefore next determined glutamate transporter activity (as uptake of the substrate [^3H]-D-Asp following a 6-min incubation in buffer supplemented with a tracer concentration of 100 nM [^3H]-D-Asp). […] To determine which transporter(s) was responsible for the [^3H]-D-Asp uptake, we assessed the effect of DL-TBOA, a nonselective inhibitor of EAATs, and UCPH-101, a specific SLC1A3 inhibitor [16, 28, 29]. […] Basal [^3H]-D-Asp uptake was decreased by about 60 % in SN38-resistant compared to parental HCT116 cells, whereas that in SN38-resistant LoVo cells was nearly tripled compared to parental LoVo cells.
(§2) The [^3H]-D-Asp uptake assay was performed essentially as in [30]. Briefly, cells were split into poly-D-lysine-coated white 96-well plates (PerkinElmer). A similar number of cells were seeded for HCT116 parental, HCT116-SN38 and HCT116-Oxa cell lines (7 × 10^4 cells/well) and LoVo parental, Lovo-SN38 and Lovo-Oxa cell lines (6 × 10^4 cells/well). 16–24 h later, culture medium was aspirated, and cells were washed once with 100 μl assay buffer (Hank’s Buffered Saline Solution supplemented with 20 mM HEPES, 1 mM CaCl2 and 1 mM MgCl2, pH 7.4). 50 μl assay buffer supplemented with 100 nM [^3H]-D-Asp and test compounds as indicated was added, and the plate was incubated at 37 °C for 6 min. Non-specific [^3H]-D-Asp uptake was determined in wells with 3 mM L-glutamate. The assay mixture was quickly removed, and wells were washed with 2 × 100 μl ice-cold assay buffer, followed by 150 μl Microscint™20 scintillation fluid (PerkinElmer). The plate was shaken for 1 h and counted in a Wallac 1450 MicroBeta Trilux scintillation counter (GMI, Ramsey, MN).

SLC1A1 = conditions: depending on the system and experimental setup; cited from earlier work
[2] = tested on: SLC1A1 localization in HCT116 cells; test: Immunofluorescence analysis of SLC1A1 subcellular localization; assay type: cell-based, human; conditions: 48 h
Protocol: Immunofluorescence analysis was carried out essentially as in [47]. Cells grown on glass coverslips were fixed in 2 % paraformaldehyde, washed in TBST, permeabilized for 5 min (0.5 % Triton X-100 in TBST), blocked for 30 min in 5 % BSA in TBST, incubated with SLC1A1 primary antibody in TBST + 1 % BSA overnight at 4 °C, washed in TBST, and with Rhodamine-phalloidin and AlexaFluor488 conjugated secondary antibody (1:600 in TBS + 1 % BSA) for 1 h, followed by washing in TBST, and mounting in N-propyl-galleate mounting medium (2 % w/v in PBS/glycerol). DAPI was added for 3 min following incubation with the secondary antibody. Cells were visualized using the 60X/1.35 NA objective of an Olympus Bx63 epifluorescence microscope. […] Overlays were carried out using Adobe Photoshop software. No other image adjustment was performed.

[3] = tested on: cellular reduced glutathione (GSH); test: Cellular GSH level; assay type: cell-based, human; conditions: 24 h
Protocol: Fig. 4 Effect of glutamate transporter inhibition on cellular GSH levels. a Basal intracellular GSH levels were measured as described in Materials and Methods, and normalized to total protein in the samples. b-c Normalized basal GSH levels under control conditions, in HCT116 and LoVo parental and resistant cells after 24 h of treatment with 0.8 μM SN38 or 20 μM oxaliplatin, in absence or presence of DL-TBOA (350 μM) as shown. * p < 0.05 vs untreated control group (n = 5). One-way ANOVA followed by Dunnett post-test
Cells were seeded in 24-well plates (10^4 cells per well), treated the next day with chemotherapy and/or DL-TBOA and incubated for 24 h. Medium was removed and cells were washed twice with ice-cold PBS, which was removed and 500 μl ice-cold 1 % Sulfosalicylic acid was added per well. Cells were incubated on ice for at least 10 min. After centrifugation (1 min, 15,000 g), 10 μl lysate was used to determine total GSx content. To measure GSSG content, 130 μl sample was mixed with 55 μl 0.2 M Tris (pH 9) and 5 μl 2-Vinylpyridine. Tubes were vortexed carefully and incubated for at least 1 h at room temperature. 10 μl of this mix was mixed first with 90 μl of water in a 96-well plate and then with a reaction mix (0.1 M sodium phosphate buffer pH 7.5 containing 1 mM EDTA, 10 mM NADPH, 10 mM DTNB and 0.05 μl Glutathione reductase, 2U/μl). Measurements were taken every 30 s for 10 min in an ELISA plate reader (Thermo Scientific MultiScan FC) at 405 nm absorbance. GSH values were obtained by subtraction of GSSG values from GSx values.

[4] = tested on: [3H]-D-Asp uptake (glutamate transporter activity) in LoVo-PAR cells; test: [3H]-D-Asp uptake assay, LoVo-PAR; assay type: cell-based, human; conditions: LoVo-PAR, 100 nM [3H]-D-Asp, 6 min, 37 °C
Protocol: as §1, §2

[5] = tested on: [3H]-D-Asp uptake (glutamate transporter activity) in HCT116-SN38 cells; test: [3H]-D-Asp uptake assay, HCT116-SN38; assay type: cell-based, human; conditions: HCT116-SN38, 100 nM [3H]-D-Asp, 6 min, 37 °C
Protocol: as §1, §2

[6] = read-out: IC50, [3H]-D-Asp uptake
[7] = parental HCT116 cells, 0.8 μM SN38 or 20 μM oxaliplatin

| SMILES | IC50 [1] [µM] | IC50 values in uptake assays (SLC1A1) | effect on SLC1A1 localization ([2]; SN38-resistant HCT116 cells, 350 μM DL-TBOA added to chemotherapeutic treatment) | effect on intracellular SLC1A1 localization ([2]; oxaliplatin-resistant HCT116 cells, control and oxaliplatin-treated, 350 μM DL-TBOA) | effect on SLC1A1 localization ([2]; parental HCT116 cells, 350 μM DL-TBOA alone or with chemotherapeutic agents) | effect on cellular GSH levels ([3]; 350 μM DL-TBOA, HCT116 and LoVo parental and resistant cells) | pIC50 ± S.E.M., [3H]-D-Asp uptake [4] | IC50 [4, 6] [µM] | pIC50 ± S.E.M., [3H]-D-Asp uptake [5] | IC50 [5, 6] [µM] | SLC1A1 subcellular localization [2, 7] | effect on cellular GSH levels [3, 7] |
| --- | --- | --- | --- | --- | --- | --- | --- | --- | --- | --- | --- | --- |
| N[C@H](C(=O)O)[C@H](OCc1ccccc1)C(=O)O (racemic) [TBOA, DL-Threo-β-Benzyloxyaspartic acid] | ~2 | low micromolar range | increased the fraction of SLC1A1 fluorescence localized to the perinuclear/nuclear compartment | partially reversed | no detectable effect on SLC1A1 localization | no detectable effect | 5.84 ± 0.03 | 1.4 | 5.83 ± 0.08 | 1.5 |  |  |
| O=C(O)C(=O)O.[NH-][C@@H]1CCCC[C@H]1[NH-].[Pt+2] [oxaliplatin] |  |  |  |  |  |  |  |  |  |  | marked shift in SLC1A1 localization towards the perinuclear/nuclear region | slightly increased GSH levels |
